“And” between values parts separate entries of the source, which are not always exact repeats. Identical values can stand only once. Like-named read-outs stand apart in the source and are kept apart here.
Experiments:
[1] = system: Soluble Methane Monooxygenase from Methylobacterium organophilum (ATCC 27,886); experiment: Oxidation of alkanes/alkenes with NADH2 regenerated by secondary alcohol dehydrogenase (Example 22); format: biochemical
Protocol: (§1) The vials were incubated at 35°C on a reciprocating water bath shaker at 50 oscillations per minute.. The gaseous phase of the vials was evacuated by vacuum and replaced with a gaseous mixture consisting of 1:1 by volume oxygen:the alkane substrate indicated in Table XVIII, at which point the reaction was initiated.
(§2) The rate of oxidation of the alkane substrates was measured either by estimation of products formed or by amount of substrate utilized from the gas or liquid phase. In the former case, 1-2 µ 1 samples of the reaction mixture were injected into a gas chromatograph immediately after addition of substrate (zero time) and after 4 and 8 min. of incubation. Specific activities were expressed as nmoles of product formed per min. per mg of protein, with the higher number representing better conversion. If substrate utilization was the measure of oxidation rate, […] of liquid or 50 Al of gas was injected into the gas chromatograph at zero time and after 4 and 8 min. of incubation of the reaction mixture at 35°C, and specific activities were expressed as the amount of substrate utilized per min. per mg. of protein. Regardless of the procedure employed, control experiments were conducted for each substrate in the absence of NADH2, in the absence of oxygen, and using boiled extracts.
(§3) The alcohol products were identified and estimated by retention time comparisons and co-chromatography with authentic standards using flame-ionization gas chromatography. The column temperature was maintained isothermally between 80°C and 130°C with helium carrier gas flow rates of 20-40 ml per min. The amount of product formed was estimated from peak areas using a standard graph constructed using authentic compounds.
(§4) Duplicate measurements were carried out for each substrate. Protein concentrations in cellular fractions were estimated with Folin Ciocalteu reagent as described by O.H. Lowry et al., supra, using bovine serum albumin as a standard.

[2] = system: Secondary Alcohol Dehydrogenase; experiment: Dehydrogenation of the secondary alcohol in the coupled reaction (Example 22); format: biochemical, yeast Pichia sp.; details: NAD^+
Protocol: The procedure of Example 15 was followed using 1.0 ml of a reaction mixture consisting of 50 µ moles potassium phosphate buffer at pH 7.0, 10 µ moles NAD^+, 10 µ moles secondary alcohol (either 2-butanol or 2-propanol), and, as the remainder, secondary alcohol dehydrogenase from yeast Pichia sp. and the soluble S(80) fraction obtained as described in Example 14. The dehydrogenase was previously purified as described in Patel et al., Eur. J. Biochem., 101, 401 (1979).

[3] = system: Soluble Methane Monooxygenase; experiment: Effect of potential inhibitors on propylene oxidation by the soluble S(80) fraction (Example 9); format: biochemical, Methylobacterium organophilum (CRL.26)
Protocol: (§5) The vials were incubated at 35 °C on a reciprocating water bath shaker at 50 oscillations per minute. […]
[…] Specific activities were expressed as nmoles of product formed per min. per mg. of protein, with the higher number representing better conversion. With each substrate, control experiments were conducted in the absence of NADH2, in the absence of oxygen, and using boiled extracts.
[…] The column temperature was maintained isothermally between 80 °C and 200°C with helium carrier gas flow rates of 20-40 ml per min. The amount of product formed was estimated from peak areas using a standard graph constructed using authentic compounds.
(§6) Duplicate measurements were carried out for each substrate.

[4] = biological target: T1, soluble methane monooxygenase from Methylococcus capsulatus (Bath) (Methylococcus capsulatus, UniProt P22869); format: biochemical; set-up: host or cells: soluble fraction of Methylococcus capsulatus Strain Bath; details: comparison with CRL.26 in Example 9
[5] = system: Methane Monooxygenase from Methylobacterium sp. CRL.26; experiment: Hydroxylation of alkanes / epoxidation of alkenes with NADH2 regenerated by formaldehyde dehydrogenase (Example 12, Table XV); format: biochemical
Protocol: The vials were incubated at 35 °C on a reciprocating water bath shaker at 50 oscillations per minute. The gaseous phase of the vials was evacuated by vacuum and replaced with a 1 to 1 by volume gaseous mixture of the alkane substrate indicated in Table III to oxygen, at which point the reaction was initiated.
(§7) The rate of oxidation of the alkanes was measured by injecting 1-2 µ 1 samples of the reaction mixture into a gas chromatograph immediately after addition of substrate (zero time) and after 5 and 10 min. of incubation. Specific activities were expressed as nmoles of product formed per min. per mg. of protein, with the higher number representing better conversion. With each substrate, control experiments were conducted in the absence of NADH2, in the absence of oxygen, and using boiled extracts.
as §3, with “80 °C” for “80°C”, “200°C” for “130°C”
Duplicate measurements were carried out for each substrate. Protein concentrations in cellular fractions were estimated with Folin Ciocalteu reagent as described by O.H. Lowry et al., J. Biol. Chem., 193, 265 (1951), using bovine serum albumin as a standard.

[6] = system: Soluble Methane Monooxygenase from Methylobacterium organophilum (ATCC 27,886); experiment: Oxidation of alkanes/alkenes with NADH2 regenerated by formate and NAD+ (Example 20); format: biochemical
Protocol: as §1, §2, §3, §4

[7] = biological target: T1, soluble methane monooxygenase from Methylococcus capsulatus (Bath); details: cited from earlier work
[8] = biological target: soluble methane monooxygenase from Methylosinus trichosporium (OB3b) (Methylosinus trichosporium, UniProt P27353); details: cited from earlier work
[9] = system: Soluble Methane Monooxygenase from Methylobacterium organophilum (ATCC 27,886); experiment: Hydroxylation of alkanes / epoxidation of alkenes with NADH2 regenerated by formaldehyde dehydrogenase (Example 21); format: biochemical
Protocol: as §1, §2, §3, §4

[10] = system: Soluble Methane Monooxygenase; experiment: Effect of various cofactor systems on propylene oxidation by the soluble S(80) fraction (Examples 7, 11); format: biochemical, Methylobacterium organophilum (CRL.26); details: propylene substrate; for Specific Activity: cofactor system at 2.5 mM; for suitability as cofactor system / electron donor (in words): replacing NADH2
Protocol: as §5, §7
as §3, with “80 °C” for “80°C”, “200°C” for “130°C”
as §6

[11] = system: soluble methane monooxygenase; experiment: Other electron donors in place of NADH2 (Example 23); format: biochemical, Methylobacterium organophilum (ATCC 27,886); details: as electron donor replacing NADH2 in the procedure of Example 15
Protocol: as §1, §2

[12] = inhibitor 1 mM, incubated at 0°C for 15 min, propylene substrate, percentage of control (100%) containing no inhibitor
[13] = inhibitor 1 mM, incubated at 0°C for 15 min, propylene substrate, percentage of control containing no inhibitor
[14] = inhibitor 0.1 mM, incubated at 0°C for 15 min, propylene substrate, percentage of control (100%) containing no inhibitor
[15] = inhibitor 0.1 mM, incubated at 0°C for 15 min, propylene substrate, percentage of control containing no inhibitor

T1 sequence (P22869 whole entry): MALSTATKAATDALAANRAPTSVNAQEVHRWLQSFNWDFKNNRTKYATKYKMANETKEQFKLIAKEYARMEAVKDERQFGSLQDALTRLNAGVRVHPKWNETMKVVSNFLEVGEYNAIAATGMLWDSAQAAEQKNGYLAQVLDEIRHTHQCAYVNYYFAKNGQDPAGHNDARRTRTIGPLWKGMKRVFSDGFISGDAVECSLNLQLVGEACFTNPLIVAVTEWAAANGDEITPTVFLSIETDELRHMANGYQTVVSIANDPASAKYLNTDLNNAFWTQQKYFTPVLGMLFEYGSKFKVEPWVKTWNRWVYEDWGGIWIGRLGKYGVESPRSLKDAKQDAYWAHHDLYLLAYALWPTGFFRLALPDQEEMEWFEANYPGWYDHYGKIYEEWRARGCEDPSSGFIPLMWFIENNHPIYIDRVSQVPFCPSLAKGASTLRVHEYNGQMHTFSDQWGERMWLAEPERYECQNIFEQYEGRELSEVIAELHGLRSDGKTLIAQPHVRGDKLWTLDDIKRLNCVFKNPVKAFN
T1 sequence (P18798 whole entry, further chain): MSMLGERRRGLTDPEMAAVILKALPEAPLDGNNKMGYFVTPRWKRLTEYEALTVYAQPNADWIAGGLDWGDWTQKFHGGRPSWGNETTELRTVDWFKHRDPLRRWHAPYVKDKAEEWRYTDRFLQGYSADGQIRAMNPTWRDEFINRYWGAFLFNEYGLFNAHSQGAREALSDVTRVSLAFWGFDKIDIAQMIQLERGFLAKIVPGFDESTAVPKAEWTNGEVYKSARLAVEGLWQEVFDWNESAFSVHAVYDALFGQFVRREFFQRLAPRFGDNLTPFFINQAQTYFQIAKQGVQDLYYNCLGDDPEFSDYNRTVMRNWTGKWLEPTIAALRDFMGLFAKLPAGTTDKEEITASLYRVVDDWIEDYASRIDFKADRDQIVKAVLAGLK
T1 sequence (P11987 whole entry, further chain): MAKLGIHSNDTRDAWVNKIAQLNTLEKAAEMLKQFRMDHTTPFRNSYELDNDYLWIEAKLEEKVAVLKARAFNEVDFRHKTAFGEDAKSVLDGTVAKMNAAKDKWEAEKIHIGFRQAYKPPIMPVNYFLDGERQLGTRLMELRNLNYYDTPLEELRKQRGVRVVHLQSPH
Sequence of soluble methane monooxygenase from Methylosinus trichosporium (OB3b) (P27354 whole entry): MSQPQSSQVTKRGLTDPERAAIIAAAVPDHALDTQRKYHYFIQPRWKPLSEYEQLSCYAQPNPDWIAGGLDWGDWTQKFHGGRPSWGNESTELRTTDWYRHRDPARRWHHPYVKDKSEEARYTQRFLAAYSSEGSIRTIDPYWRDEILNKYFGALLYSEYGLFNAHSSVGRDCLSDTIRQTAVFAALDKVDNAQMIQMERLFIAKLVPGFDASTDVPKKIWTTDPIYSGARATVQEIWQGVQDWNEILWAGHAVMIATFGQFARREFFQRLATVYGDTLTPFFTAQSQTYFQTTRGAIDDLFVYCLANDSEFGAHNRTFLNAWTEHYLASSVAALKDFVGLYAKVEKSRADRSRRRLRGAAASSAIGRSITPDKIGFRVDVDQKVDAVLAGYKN
Sequence of soluble methane monooxygenase from Methylosinus trichosporium (OB3b) (P27355 whole entry, further chain): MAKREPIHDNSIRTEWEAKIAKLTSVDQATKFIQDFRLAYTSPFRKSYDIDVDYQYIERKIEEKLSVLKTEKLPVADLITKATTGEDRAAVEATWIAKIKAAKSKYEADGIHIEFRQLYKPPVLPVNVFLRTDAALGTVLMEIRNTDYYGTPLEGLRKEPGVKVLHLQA
Sequence of soluble methane monooxygenase from Methylosinus trichosporium (OB3b) (P27353 whole entry): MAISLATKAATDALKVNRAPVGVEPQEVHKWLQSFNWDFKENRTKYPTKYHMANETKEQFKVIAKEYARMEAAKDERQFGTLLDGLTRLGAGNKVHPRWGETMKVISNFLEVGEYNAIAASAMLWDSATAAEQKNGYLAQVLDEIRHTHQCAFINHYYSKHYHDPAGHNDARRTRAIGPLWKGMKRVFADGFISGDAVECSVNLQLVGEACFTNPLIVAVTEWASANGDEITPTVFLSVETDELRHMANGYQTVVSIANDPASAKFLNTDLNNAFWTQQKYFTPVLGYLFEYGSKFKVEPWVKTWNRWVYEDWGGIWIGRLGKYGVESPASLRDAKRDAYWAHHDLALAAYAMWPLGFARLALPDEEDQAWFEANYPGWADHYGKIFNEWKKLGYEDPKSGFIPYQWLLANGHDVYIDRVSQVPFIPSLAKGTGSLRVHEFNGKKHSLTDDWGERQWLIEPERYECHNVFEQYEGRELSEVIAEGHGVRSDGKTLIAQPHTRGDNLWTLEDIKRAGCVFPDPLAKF

2-Butanol
Rate of Product Formation ([1]; product Acetone, substrates Propane and 2-Butanol, NAD^+, secondary alcohol dehydrogenase): 18 nmoles/ min/mg of protein | Rate of Product Formation ([2]; product 2-Butanone, substrates Ethane and 2-Butanol): 48 nmoles/ min/mg of protein | Rate of Product Formation ([2]; product 2-Butanone, substrates Ethylene and 2-Butanol): 45 nmoles/ min/mg of protein | Rate of Product Formation ([2]; product 2-Butanone, substrates Methane and 2-Butanol): 50 nmoles/ min/mg of protein | Rate of Product Formation ([2]; product 2-Butanone, substrates Propane and 2-Butanol): 45 nmoles/ min/mg of protein | Rate of Product Formation ([2]; product 2-Butanone, substrates Propylene and 2-Butanol): 50 nmoles/ min/mg of protein

c1cnc2c(c1)ccc1cccnc12 [1,10-Phenanthroline]
inhibition of soluble methane monooxygenase activity (in words) [3]: not inhibited | Activity (%) [3, 12]: 67% | Inhibition (%) [3, 13]: 33% | inhibited activity of Methylobacterium organophilum (CRL.26) ([3]; statement in the text of Example 9): about 30% | inhibition of the activity of Methylococcus capsulatus (Bath) (in words) [4]: did not inhibit

C=CCC [1-Butene]
Rate of Product Formation ([5]; pH 7): 180 nmoles/min/mg protein | Rate of Product Formation ([6]; pH 7): 35 nmoles/ min/mg of protein

CC(C)O [2-Propanol]
Rate of Product Formation ([1]; product 2-Butanone, substrates Butane and 2-Propanol, NAD^+, secondary alcohol dehydrogenase): 10 nmoles/ min/mg of protein | Rate of Product Formation ([2]; product Acetone, substrates Butane and 2-Propanol): 45 nmoles/ min/mg of protein | Rate of Product Formation ([2]; product Acetone, substrates Isobutylene and 2-Propanol): 45 nmoles/ min/mg of protein

O=C(O)c1cc(SSc2ccc([N+](=O)[O-])c(C(=O)O)c2)ccc1[N+](=O)[O-] [5,5'-dithiobis-2-nitrobenzoate]
inhibition of soluble methane monooxygenase activity (in words) [3]: inhibit | Activity (%) [3, 12]: 38% | Inhibition (%) [3, 13]: 62%

Oc1cccc2cccnc12 [8-Hydroxyquinoline]
Activity (%) [3]: 117% | Inhibition (%) [3]: 0% | inhibition of soluble methane monooxygenase activity (in words) [3]: not inhibitory | inhibition of soluble methane monooxygenase (in words) [7]: strongly inhibits | inhibition of soluble methane monooxygenase (in words) [8]: strongly inhibits

CCCC [Butane]
Rate of Product Formation ([5]; pH 7): 250 nmoles/min/mg protein and 150 nmoles/min/mg protein | Rate of Product Formation ([9]; pH 7): 20 nmoles/ min/mg of protein and 10 nmoles/ min/mg of protein | Rate of Product Formation [1]: 15 nmoles/ min/mg of protein

CC [Ethane]
Rate of Product Formation ([5]; product Ethanol, NAD^+, formaldehyde, reduced glutathione, formaldehyde dehydrogenase, pH 7.0): 145 nmoles/min/mg protein

C=C [Ethylene]
Rate of Product Formation ([5]; pH 7): 140 nmoles/min/mg protein | Rate of Product Formation ([6]; pH 7): 28 nmoles/ min/mg of protein | Rate of Product Formation ([9]; pH 7): 28 nmoles/ min/mg of protein | Rate of Product Formation [1]: 25 nmoles/ min/mg of protein

NC(=O)CI [Iodoacetamide]
inhibition of soluble methane monooxygenase activity (in words) [3]: inhibit | Activity (%) [3, 12]: 20% | Inhibition (%) [3, 13]: 80%

C=C(C)C [Isobutylene]
Rate of Product Formation ([1]; product Epoxyisobutylene, substrates Isobutylene and 2-Propanol, NAD^+, secondary alcohol dehydrogenase): 29 nmoles/ min/mg of protein

C [Methane]
Rate of Product Formation ([5]; product Methanol, NAD^+, formaldehyde, reduced glutathione, formaldehyde dehydrogenase from Pichia sp., pH 7.0): 128 nmoles/min/mg protein

CCN1C(=O)C=CC1=O [N-Ethylmaleimide]
Activity (%) [3, 12]: 102% | Inhibition (%) [3, 13]: 0%

NC(=O)C1=CN([C@@H]2O[C@H](COP(=O)(O)OP(=O)(O)OC[C@H]3O[C@@H](n4cnc5c(N)ncnc54)[C@H](O)[C@@H]3O)[C@@H](O)[C@H]2O)C=CC1 [NADH2, nicotinamide adenine dinucleotide in the reduced form]
Specific Activity [10]: 100 nmoles/min/mg of protein | suitability as cofactor system / electron donor (in words) [10]: suitable | soluble methane monooxygenase activity observed [11]: about 70%

NC(=O)C1=CN([C@@H]2O[C@H](COP(=O)(O)OP(=O)(O)OC[C@H]3O[C@@H](n4cnc5c(N)ncnc54)[C@H](OP(=O)(O)O)[C@@H]3O)[C@@H](O)[C@H]2O)C=CC1 [NADPH2, nicotinamide adenine dinucleotide phosphate in the reduced form]
Specific Activity [10]: 70 nmoles/min/mg of protein | suitability as cofactor system / electron donor (in words) [10]: suitable

CCC [Propane]
Rate of Product Formation ([5]; product Propan-1-ol, NAD^+, formaldehyde, reduced glutathione, formaldehyde dehydrogenase, pH 7.0): 60 nmoles/min/mg protein | Rate of Product Formation ([5]; product Propan-2-ol, NAD^+, formaldehyde, reduced glutathione, formaldehyde dehydrogenase, pH 7.0): 95 nmoles/min/mg protein

C=CC [Propylene]
uninhibited rate of propylene oxidation ([3]; no inhibitor, substrate propylene): (b) The uninhibited rate of propylene oxidation was 100 nmoles of propylene oxide produced/min/mg of protein. | Rate of Product Formation ([5]; product Propylene Oxide, NAD^+, formaldehyde, reduced glutathione, formaldehyde dehydrogenase, pH 7.0): 250 nmoles/min/mg protein | Rate of Product Formation ([6]; product Propylene Oxide, NAD^+ and sodium formate, pH 7.0): 54 nmoles/ min/mg of protein | Rate of Product Formation ([9]; product Propylene Oxide, NAD^+, reduced glutathione, formaldehyde, formaldehyde dehydrogenase, pH 7.0): 52 nmoles/ min/mg of protein | Rate of Product Formation ([1]; product Propylene oxide, substrates Propylene and 2-Butanol, NAD^+, secondary alcohol dehydrogenase): 48 nmoles/ min/mg of protein

NNC(N)=S [Thiosemicarbazide]
inhibition of soluble methane monooxygenase activity (in words) [3]: not inhibited | Activity (%) [3, 12]: 108% | Inhibition (%) [3, 13]: 0%

O=C(O)c1cc[c]([Hg+])cc1.[OH-] [p-Hydroxymercuribenzoate]
Activity (%) [3, 14]: 100% | Inhibition (%) [3, 15]: 0%

Acriflavin
inhibition of soluble methane monooxygenase activity (in words) [3]: inhibit | Activity (%) [3, 14]: 71% | Inhibition (%) [3, 15]: 29%

— patent EP0088602A2, “Microbiological oxidation process” (EXXON RESEARCH AND ENGINEERING COMPANY, priority 1982, dated 1983)
